The values that follow are results of earlier work, collected in patent publication US20140090255A1, “Skin Engaging Member Comprising At Least One Thermally Resilient Sensate” (The Gillette Company, priority 2012, published 2014).

The conditions of the data set: concentration where the cooling effect could be clearly recognized; Emberger and Hopp 1987.
In the case of `CC(C)[C@@H]1CC[C@@H](C)C[C@@H]1O` [Example 1-neomenthol, 1-neomenthol], the cooling threshold result is “about 3,000 ppb”. As for `CC(C)[C@@H]1CC[C@@H](C)C[C@H]1O` [L-menthol], the cooling threshold entry is recorded as “about 800 ppb”. Consider `CC(C)[C@@H]1CC[C@@H](C)C[C@@H]1O` [d-neomenthol], for which the cooling threshold result is given as “about 25,000 ppb”.
